Reference: the supplement of paper PMC10307832

How the values were obtained:
Assay in all cases: relative viability (nuclei count vs DMSO), 5 days (fraction); higher = more cells survive
AZD8055 + AZD7762 = compound: COc1ccc(-c2ccc3c(N4CCOC[C@@H]4C)nc(N4CCOC[C@@H]4C)nc3n2)cc1CO [AZD8055] + NC(=O)Nc1cc(-c2cccc(F)c2)sc1C(=O)N[C@H]1CCCNC1 [AZD7762] (partner 0.2 µM)
How it was run: (§1)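 Lung cancer cell lines were seeded in 1536-well plates and dosed by pin tool the next day, with either a single drug or a fixed anchor-drug dose combined with five library-drug doses (not always all listed) spaced in √10 steps. Five days later, one step fixed the cells and stained their nuclei (final 0.05% Triton X-100, 1% formaldehyde, 1 ug/ml Hoechst), and nuclei were counted on 4× images. Relative viability is the nuclei count in treated wells divided by the count in vehicle wells, and each value is the median of duplicate plates.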

AZD8055 + Pemetrexed = compound: COc1ccc(-c2ccc3c(N4CCOC[C@@H]4C)nc(N4CCOC[C@@H]4C)nc3n2)cc1CO [AZD8055] + Nc1nc2[nH]cc(CCc3ccc(C(=O)N[C@@H](CCC(=O)O)C(=O)O)cc3)c2c(=O)[nH]1 [Pemetrexed] (partner 0.2 µM)
How it was run: as §1

AZD8055 + OSI-027 = compound: COc1ccc(-c2ccc3c(N4CCOC[C@@H]4C)nc(N4CCOC[C@@H]4C)nc3n2)cc1CO [AZD8055] + COc1cccc2cc(-c3nc([C@H]4CC[C@H](C(=O)O)CC4)n4ncnc(N)c34)[nH]c12 [OSI-027] (partner 0.5 µM)
How it was run: as §1

AZD8055 + Foretinib = compound: COc1ccc(-c2ccc3c(N4CCOC[C@@H]4C)nc(N4CCOC[C@@H]4C)nc3n2)cc1CO [AZD8055] + COc1cc2c(Oc3ccc(NC(=O)C4(C(=O)Nc5ccc(F)cc5)CC4)cc3F)ccnc2cc1OCCCN1CCOCC1 [Foretinib] (partner 0.25 µM)
How it was run: as §1

Cell Line: HCC-827
- relative viability (AZD8055 + AZD7762; first compound 0.01 µM): 0.203
- relative viability (AZD8055 + AZD7762; first compound 0.03162 µM): 0.319
- relative viability (AZD8055 + AZD7762; first compound 0.1 µM): 0.189
- relative viability (AZD8055 + AZD7762; first compound 0.3162 µM): 0.212
- relative viability (AZD8055 + AZD7762; first compound 1 µM): 0.165
- relative viability (AZD8055 + Pemetrexed; first compound 0.01 µM): 0.278
- relative viability (AZD8055 + Pemetrexed; first compound 0.03162 µM): 0.242
- relative viability (AZD8055 + Pemetrexed; first compound 0.1 µM): 0.239
- relative viability (AZD8055 + Pemetrexed; first compound 0.3162 µM): 0.275
- relative viability (AZD8055 + Pemetrexed; first compound 1 µM): 0.216
- relative viability (AZD8055 + OSI-027; first compound 0.01 µM): 0.798
- relative viability (AZD8055 + OSI-027; first compound 0.03162 µM): 0.746
- relative viability (AZD8055 + OSI-027; first compound 0.1 µM): 0.809
- relative viability (AZD8055 + OSI-027; first compound 0.3162 µM): 0.604
- relative viability (AZD8055 + OSI-027; first compound 1 µM): 0.641
- relative viability (AZD8055 + Foretinib; first compound 0.01 µM): 1.14
- relative viability (AZD8055 + Foretinib; first compound 0.03162 µM): 0.98
- relative viability (AZD8055 + Foretinib; first compound 0.1 µM): 1.02
- relative viability (AZD8055 + Foretinib; first compound 0.3162 µM): 0.424
- relative viability (AZD8055 + Foretinib; first compound 1 µM): 0.337

Cell Line: HCC-78
- relative viability (AZD8055 + AZD7762; first compound 0.01 µM): 0.658
- relative viability (AZD8055 + AZD7762; first compound 0.03162 µM): 0.541
- relative viability (AZD8055 + AZD7762; first compound 0.1 µM): 0.47
- relative viability (AZD8055 + AZD7762; first compound 0.3162 µM): 0.347
- relative viability (AZD8055 + AZD7762; first compound 1 µM): 0.269
- relative viability (AZD8055 + Pemetrexed; first compound 0.01 µM): 0.967
- relative viability (AZD8055 + Pemetrexed; first compound 0.03162 µM): 0.865
- relative viability (AZD8055 + Pemetrexed; first compound 0.1 µM): 0.855
- relative viability (AZD8055 + Pemetrexed; first compound 0.3162 µM): 0.88
- relative viability (AZD8055 + Pemetrexed; first compound 1 µM): 0.896
- relative viability (AZD8055 + OSI-027; first compound 0.01 µM): 0.415
- relative viability (AZD8055 + OSI-027; first compound 0.03162 µM): 0.392
- relative viability (AZD8055 + OSI-027; first compound 0.1 µM): 0.326
- relative viability (AZD8055 + OSI-027; first compound 0.3162 µM): 0.352
- relative viability (AZD8055 + OSI-027; first compound 1 µM): 0.366
- relative viability (AZD8055 + Foretinib; first compound 0.01 µM): 0.496
- relative viability (AZD8055 + Foretinib; first compound 0.03162 µM): 0.527
- relative viability (AZD8055 + Foretinib; first compound 0.1 µM): 0.388
- relative viability (AZD8055 + Foretinib; first compound 0.3162 µM): 0.417
- relative viability (AZD8055 + Foretinib; first compound 1 µM): 0.308

Cell Line: NCI-H2085
- relative viability (AZD8055 + AZD7762; first compound 0.01 µM): 0.994
- relative viability (AZD8055 + AZD7762; first compound 0.03162 µM): 0.848
- relative viability (AZD8055 + AZD7762; first compound 0.1 µM): 0.706
- relative viability (AZD8055 + AZD7762; first compound 0.3162 µM): 0.409
- relative viability (AZD8055 + AZD7762; first compound 1 µM): 0.362
- relative viability (AZD8055 + Pemetrexed; first compound 0.01 µM): 0.827
- relative viability (AZD8055 + Pemetrexed; first compound 0.03162 µM): 0.74
- relative viability (AZD8055 + Pemetrexed; first compound 0.1 µM): 0.481
- relative viability (AZD8055 + Pemetrexed; first compound 0.3162 µM): 0.31
- relative viability (AZD8055 + Pemetrexed; first compound 1 µM): 0.268
- relative viability (AZD8055 + OSI-027; first compound 0.01 µM): 0.744
- relative viability (AZD8055 + OSI-027; first compound 0.03162 µM): 0.852
- relative viability (AZD8055 + OSI-027; first compound 0.1 µM): 0.551
- relative viability (AZD8055 + OSI-027; first compound 0.3162 µM): 0.34
- relative viability (AZD8055 + OSI-027; first compound 1 µM): 0.355
- relative viability (AZD8055 + Foretinib; first compound 0.01 µM): 0.945
- relative viability (AZD8055 + Foretinib; first compound 0.03162 µM): 0.919
- relative viability (AZD8055 + Foretinib; first compound 0.1 µM): 0.602
- relative viability (AZD8055 + Foretinib; first compound 0.3162 µM): 0.278
- relative viability (AZD8055 + Foretinib; first compound 1 µM): 0.329

Cell Line: PC-14
- relative viability (AZD8055 + AZD7762; first compound 0.01 µM): 0.458
- relative viability (AZD8055 + AZD7762; first compound 0.03162 µM): 0.394
- relative viability (AZD8055 + AZD7762; first compound 0.1 µM): 0.294
- relative viability (AZD8055 + AZD7762; first compound 0.3162 µM): 0.147
- relative viability (AZD8055 + AZD7762; first compound 1 µM): 0.102
- relative viability (AZD8055 + Pemetrexed; first compound 0.01 µM): 0.153
- relative viability (AZD8055 + Pemetrexed; first compound 0.03162 µM): 0.214
- relative viability (AZD8055 + Pemetrexed; first compound 0.1 µM): 0.178
- relative viability (AZD8055 + Pemetrexed; first compound 0.3162 µM): 0.212
- relative viability (AZD8055 + Pemetrexed; first compound 1 µM): 0.162
- relative viability (AZD8055 + OSI-027; first compound 0.01 µM): 1.2
- relative viability (AZD8055 + OSI-027; first compound 0.03162 µM): 0.849
- relative viability (AZD8055 + OSI-027; first compound 0.1 µM): 0.497
- relative viability (AZD8055 + OSI-027; first compound 0.3162 µM): 0.283
- relative viability (AZD8055 + OSI-027; first compound 1 µM): 0.109
- relative viability (AZD8055 + Foretinib; first compound 0.01 µM): 1.18
- relative viability (AZD8055 + Foretinib; first compound 0.03162 µM): 1.04
- relative viability (AZD8055 + Foretinib; first compound 0.1 µM): 1.07
- relative viability (AZD8055 + Foretinib; first compound 0.3162 µM): 0.488
- relative viability (AZD8055 + Foretinib; first compound 1 µM): 0.299
